Measured values published in patent US8759365B2, “Organic compounds” (Novartis AG, priority 2007, dated 2014).

molecular target: rhCETP (Homo sapiens (Human), UniProt P11597); assay: CETP in vitro assay (CETP Activity Kit, fluorescence, rhCETP); type: biochemical; settings: CETP inhibition; Table 1 does not name the assay; read-out: IC50 (nM), Inhibitory Activity of Compounds
Experimental: CETP Activity Kit (#RB-RPAK) was purchased from Roar Biochemical, Inc. (New York, N.Y., USA). To each well of a 96-well NBS half-area plate (costar #3686), […] of the donor solution, 1 μL of the acceptor solution and 5 μL compound solution diluted in 100% DMSO were added in a 38 μL of buffer containing 10 mM Tris, 150 mM NaCl and 2 mM EDTA, pH 7.4. Then, the plate was sealed with Themowell™ Sealers (costar #6524) and followed by a mixing on a plate shaker by MICROPLATE MIXER MPX-96 (IWAKI) at power 3 for 10 sec at room temperature. After 10-min incubation at 37° C., the reaction was started by adding 5 μL of rhCETP solution (Cardiovascular Target, New York, N.Y., USA) and mixed on the plate shaker for 10 sec, then the fluorescence intensity at 0 min was measured by a ARVO SX (Perkin Elmerr, USA) at excitation wavelength of 465 nm and emission wavelength of 535 nm. After 120 min-incubation at 37° C., fluorescence intensity was measured again. The inhibition of rhCETP activity by a compound was calculated by the following calculation. Inhibition %={1−(F120−F0)/(f120−f0)}×100 F: measured fluorescence intensity with compound at 0 or 120 min. f: measured fluorescence intensity of without compound at 0 or 120 min.
The IC50 values are determined from the dose-effect curve by Origin software. IC50 values, especially from about 0.1 nM to about 50 μM, are determined for the compounds of the present invention or a pharmaceutically acceptable salt thereof.

Sequence of rhCETP (P11597 18-493): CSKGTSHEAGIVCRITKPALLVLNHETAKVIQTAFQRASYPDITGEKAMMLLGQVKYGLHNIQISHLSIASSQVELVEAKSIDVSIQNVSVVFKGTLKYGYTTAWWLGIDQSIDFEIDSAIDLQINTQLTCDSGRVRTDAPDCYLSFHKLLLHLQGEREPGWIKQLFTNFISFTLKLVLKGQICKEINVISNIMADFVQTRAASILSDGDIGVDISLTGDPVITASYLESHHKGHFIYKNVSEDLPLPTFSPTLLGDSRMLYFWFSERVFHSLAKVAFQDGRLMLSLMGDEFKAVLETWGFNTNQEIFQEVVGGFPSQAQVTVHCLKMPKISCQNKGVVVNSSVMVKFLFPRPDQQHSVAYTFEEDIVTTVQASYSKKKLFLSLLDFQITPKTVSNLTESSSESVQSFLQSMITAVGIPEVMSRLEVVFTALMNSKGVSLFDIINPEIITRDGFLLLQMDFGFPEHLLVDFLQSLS

| SMILES | IC50 [nM] |
| --- | --- |
| CC[C@@H]1C[C@H](N(Cc2cc(C(F)(F)F)cc(C(F)(F)F)c2)c2ncc(-c3cnn(C)c3)cn2)CN1C(=O)N(C)C [Example 18, (2R,4S)-4-{(3,5-Bis-trifluoromethyl-benzyl)-[5-(1-methyl-1H-pyrazol-4-yl)-pyrimidin-2-yl]-amino}-2-ethyl-pyrrolidine-1-carboxylic acid dimethylamide] | 63 |
| CC[C@@H]1C[C@H](N(Cc2cc(C(F)(F)F)cc(C(F)(F)F)c2)c2ncc(-c3cnn(C)c3)cn2)CN1C(=O)C1CCCCC1 [Example 5-3, ((2R,4S)-4-{(3,5-Bis-trifluoromethyl-benzyl)-[5-(1-methyl-1H-pyrazol-4-yl)-pyrimidin-2-yl]-amino}-2-ethyl-pyrrolidin-1-yl)-cyclohexyl-methanone] | 92 |
| CC[C@@H]1C[C@H](N(Cc2cc(C(F)(F)F)cc(C(F)(F)F)c2)c2ncc(-c3cnn(C)c3)cn2)CN1C(=O)OCC(C)(C)C [Example 6-2, (2R,4S)-4-{(3,5-Bis-trifluoromethyl-benzyl)-[5-(1-methyl-1H-pyrazol-4-yl)-pyrimidin-2-yl]-amino}-2-ethyl-pyrrolidine-1-carboxylic acid 2,2-dimethyl-propyl ester] | 47 |
| CC[C@@H]1C[C@H](N(Cc2cc(C(F)(F)F)cc(C(F)(F)F)c2)c2ncc(-c3cnn(C)c3)cn2)CN1C(=O)OCC(C)C [Example 6-1, (2R,4S)-4-{(3,5-Bis-trifluoromethyl-benzyl)-[5-(1-methyl-1H-pyrazol-4-yl)-pyrimidin-2-yl]-amino}-2-ethyl-pyrrolidine-1-carboxylic acid isobutyl ester] | 69 |
| CC[C@@H]1C[C@H](N(Cc2cc(C(F)(F)F)cc(C(F)(F)F)c2)c2ncc(N3CC[C@H](O)C3)cn2)CN1C(=O)OC(C)C [Example 11, (2R,4S)-4-{(3,5-Bis-trifluoromethyl-benzyl)-[5-((S)-3-hydroxy-pyrrolidin-1-yl)-pyrimidin-2-yl]-amino}-2-ethyl-pyrrolidine-1-carboxylic acid isopropyl ester] | 72 |
| CC[C@@H]1C[C@H](N(Cc2cc(C(F)(F)F)cc(C(F)(F)F)c2)c2ncc(-c3cnn(C)c3)cn2)CN1C(=O)OCC1CCOCC1 [Example 7-6, (2R,4S)-4-{(3,5-Bis-trifluoromethyl-benzyl)-[5-(1-methyl-1H-pyrazol-4-yl)-pyrimidin-2-yl]-amino}-2-ethyl-pyrrolidine-1-carboxylic acid tetrahydro-pyran-4-ylmethyl ester] | 46 |
| CC[C@@H]1C[C@H](N(Cc2cc(C(F)(F)F)cc(C(F)(F)F)c2)c2ncc(-c3cn[nH]c3)cn2)CN1C(=O)OC(C)C [Example 14, (2R,4S)-4-{(3,5-Bis-trifluoromethyl-benzyl)-[5-(1H-pyrazol-4-yl)-pyrimidin-2-yl]-amino}-2-ethyl-pyrrolidine-1-carboxylic acid isopropyl ester] | 34 |
| CC[C@@H]1C[C@H](N(Cc2cc(C(F)(F)F)cc(C(F)(F)F)c2)c2ncc(-c3cnn(C)c3)cn2)CN1C(=O)N1CCOCC1 [Example 17, ((2R,4S)-4-{(3,5-Bis-trifluoromethyl-benzyl)-[5-(1-methyl-1H-pyrazol-4-yl)-pyrimidin-2-yl]-amino}-2-ethyl-pyrrolidin-1-yl)-morpholin-4-yl-methanone] | 32 |
| CC[C@@H]1C[C@H](N(Cc2cc(C(F)(F)F)cc(C(F)(F)F)c2)c2ncc(-c3cnn(C)c3)cn2)CN1C(=O)OC1CCOCC1 [Example 7-4, (2R,4S)-4-{(3,5-Bis-trifluoromethyl-benzyl)-[5-(1-methyl-1H-pyrazol-4-yl)-pyrimidin-2-yl]-amino}-2-ethyl-pyrrolidine-1-carboxylic acid tetrahydro-pyran-4-yl ester] | 60 |
| CC[C@@H]1C[C@H](N(Cc2cc(C(F)(F)F)cc(C(F)(F)F)c2)c2ncc(-c3cnn(C)c3)cn2)CN1C(=O)N1CCCC1 [Example 16, ((2R,4S)-4-{(3,5-Bis-trifluoromethyl-benzyl)-[5-(1-methyl-1H-pyrazol-4-yl)-pyrimidin-2-yl]-amino}-2-ethyl-pyrrolidin-1-yl)-pyrrolidin-1-yl-methanone] | 39 |

Now from value to compound:

| IC50 [nM] | SMILES |
| --- | --- |
| 30 | CC[C@@H]1C[C@H](N(Cc2cc(C(F)(F)F)cc(C(F)(F)F)c2)c2ncc(-c3cnn(C)c3)cn2)CN1c1nc(N2CCC(O)CC2)ncc1Cl [Example 23-10] |
| 21 | CC[C@@H]1C[C@H](N(Cc2cc(C(F)(F)F)cc(C(F)(F)F)c2)c2ncc(-c3cnn(C)c3)cn2)CN1C(=O)O[C@H](C)CC [Example 9-4, (2R,4S)-4-{(3,5-Bis-trifluoromethyl-benzyl)-[5-(1-methyl-1H-pyrazol-4-yl)-pyrimidin-2-yl]-amino}-2-ethyl-pyrrolidine-1-carboxylic acid (R)-sec-butyl ester] |
| 41 | CCC(CC)OC(=O)N1C[C@@H](N(Cc2cc(C(F)(F)F)cc(C(F)(F)F)c2)c2ncc(-c3cnn(C)c3)cn2)C[C@H]1CC [Example 9-1, (2R,4S)-4-{(3,5-Bis-trifluoromethyl-benzyl)-[5-(1-methyl-1H-pyrazol-4-yl)-pyrimidin-2-yl]-amino}-2-ethyl-pyrrolidine-1-carboxylic acid 1-ethyl-propyl ester] |
| 70 | CC[C@@H]1C[C@H](N(Cc2cc(C(F)(F)F)cc(C(F)(F)F)c2)c2ncc(-c3cnn(C)c3)cn2)CN1C(=O)OCC1(CC)COC1 [Example 9-6, (2R,4S)-4-{(3,5-Bis-trifluoromethyl-benzyl)-[5-(1-methyl-1H-pyrazol-4-yl)-pyrimidin-2-yl]-amino}-2-ethyl-pyrrolidine-1-carboxylic acid 3-ethyl-oxetan-3-ylmethyl ester] |
| 25 | CC[C@@H]1C[C@H](N(Cc2cc(C(F)(F)F)cc(C(F)(F)F)c2)c2ncc(-c3cnn(C)c3)cn2)CN1C(=O)N1CCCCC1 [Example 16-2, ((2R,4S)-4-{(3,5-Bis-trifluoromethyl-benzyl)-[5-(1-methyl-1H-pyrazol-4-yl)-pyrimidin-2-yl]-amino}-2-ethyl-pyrrolidin-1-yl)-piperidin-1-yl-methanone] |
| 110 | CC[C@@H]1C[C@H](N(Cc2cc(C(F)(F)F)cc(C(F)(F)F)c2)c2ncc(N3CC[C@H](O)C3)cn2)CN1c1nc(N2CCC(O)CC2)ncc1Cl [Example 23-6] |
| 59 | CC[C@@H]1C[C@H](N(Cc2cc(C(F)(F)F)cc(C(F)(F)F)c2)c2ncc(-c3cnn(C)c3)cn2)CN1C(=O)OCC(F)(F)F [Example 9-2, (2R,4S)-4-{(3,5-Bis-trifluoromethyl-benzyl)-[5-(1-methyl-1H-pyrazol-4-yl)-pyrimidin-2-yl]-amino}-2-ethyl-pyrrolidine-1-carboxylic acid 2,2,2-trifluoro-ethyl ester] |
| 70 | CC[C@@H]1C[C@H](N(Cc2cc(C(F)(F)F)cc(C(F)(F)F)c2)c2ncc(-c3cnn(C)c3)cn2)CN1C(=O)OC1CCCC1 [Example 9-3, (2R,4S)-4-{(3,5-Bis-trifluoromethyl-benzyl)-[5-(1-methyl-1H-pyrazol-4-yl)-pyrimidin-2-yl]-amino}-2-ethyl-pyrrolidine-1-carboxylic acid cyclopentyl ester] |
| 54 | CC[C@@H]1C[C@H](N(Cc2cc(C(F)(F)F)cc(C(F)(F)F)c2)c2ncc(-c3cnn(C)c3)cn2)CN1C(=O)O[C@@H](C)CC [Example 9-5, (2R,4S)-4-{(3,5-Bis-trifluoromethyl-benzyl)-[5-(1-methyl-1H-pyrazol-4-yl)-pyrimidin-2-yl]-amino}-2-ethyl-pyrrolidine-1-carboxylic acid (S)-sec-butyl ester] |
